Laboratory results: EP0362645B1, “Use of pteridines in the prevention of the primary and secondary resistance during chemotherapy, and medicaments containing these compounds” (Dr. Karl Thomae GmbH, priority 1988, dated 1990)

Test system: adriamycinresistente S 180 Maus Sarcomazellen
Experiment: MTT proliferation/cytotoxicity assay on adriamycin-resistant S 180 sarcoma cells, with or without adriamycin (sensitisation)
Type: cell-based
Conditions: S-180, 144 h, six days culture, MTT readout
Description: Beispielsweise wurde die Sensibilisierung durch die Verbindungen A = 4-[N-(2-Hydroxy-2-methyl-propyl)-ethanolamino]-2,7-bis-(2,6-dimethyl-morpholino)-6-phenyl-pteridin, B = 4-Ethyl-ethanolamino-2,7-bis(2,6-dimethyl-morpholino)-6-phenyl-pteridin, C = 4-Ethanol-isopropanolamino-2,7-bis(2,6-dimethyl-morpholino)-6-phenyl-pteridin, D = 4-Diethanolamino-2,7-bis(2,6-dimethyl-morpholino)-6-phenyl-pteridin und E = 4-[N-(2-Hydroxy-2-methyl-propyl)-ethanolamino]-2,7-bis(cis-2,6-dimethyl-morpholino)-6-phenyl-pteridin am Beispiel von gegen Adriamycin resistenten Zellen wie folgt geprüft: Proliferierende, adriamycinresistente S 180 Maus Sarcomazellen werden in Anwesenheit unterschiedlicher Konzentrationen Testsubstanzen für sechs Tage kultiviert. Zytotoxisch oder zytostatisch wirkende Konzentrationen der Testsubstanzen werden durch vermindertes Zellwachstum oder durch das Absterben der Zellen angezeigt. Endpunkt des Assays ist die Zahl der lebenden Zellen pro Kultur, die indirekt ermittelt wird, indem die Eigenschaft vitaler Zellen, den Farbstoff MTT [= 3-(4,5-Dimethylthiazol-2-yl)-2,5-diphenyltetrazoliumbromid] zum farbigen Formazan zu reduzieren, ausgenützt wird. Als IC50 wird die Konzentration einer Testsubstanz bezeichnet, welche die Zahl der vitalen Zellen pro Kulturgefäß auf 50 % der unbehandelten Kontrolle reduziert. Die Testsubstanzen werden sowohl in Abwesenheit von Adriamycin als auch in Anwesenheit einer unter Kulturbedingungen nicht proliferationshemmend wirkenden Menge Adriamycin getestet. Pro Testsubstanz erhält man daher zwei IC50-Werte, einen in Anwesenheit (IC50 ADR), den anderen in Abwesenheit (IC50) von Adriamycin. Die Differenz der Zehnerlogarithmen der beiden IC50-Werte: Δ = 1gIC50-1gIC50 ADR ist ein Maß für die Erhöhung der Zytotoxizität der Testsubstanz durch Adriamycin.
Exponentiell wachsende, adriamycinresistente oder adriamycinsensitive S 180-Zellen werden in 96-Loch Flachboden-Mikrotiterplatten zu 2000 Zellen pro Loch in 100 »l Wachstumsmedium (RPMI-1640, das 10 % fötales Rinderserum enthält) ausplattiert. Die Kulturplatten werden im Brutschrank bei 37°C, 5 % CO₂ und 100 % relativer Luftfeuchtigkeit inkubiert. Nach 24 Stunden werden pro Loch 50 »l Wachstumsmedium, das unterschiedliche Konzentrationen an Testsubstanz enthält, und 50 »l Wachstumsmedium mit oder ohne Adriamycin hinzugefügt. Im Anschluß an eine weitere sechstägige Kultivierung werden 50 »l Tetrazoliumsalzlösung [5 mg 3-(4,5-Dimethylthiazol-2-yl)-2,5-diphenyltetrazoliumbromid pro ml Phosphat-gepufferter Salinelösung, vor Gebrauch 1:5 (v/v) mit RPMI-1640 verdünnt] in jedes Loch pipettiert. Nach vier Stunden Inkubation wird das Kulturmedium vorsichtig abgesaugt und intrazellulär gebildetes Formazan durch 150 »l Dimethylsulfoxid pro Loch solubilisiert. Die Platten werden kurz geschüttelt und die optische Dichte bei 570 nm mit einem Photometer wie einem Dynatech MR-600-Gerät gemessen. Die Bildung des farbigen Formazans durch Reduktion des Tetrazoliumsalzes ist proportional der Zahl der lebenden Zellen. Die Mittelwerte von Dreifach-Bestimmungen wurden bei der Berechnung der IC50-Werte verwendet (Verdünnungsstufe: 1:2).

[1] = Tabelle 2, Adriamycin 100 ng/ml

CCN(CCO)c1nc(N2CC(C)OC(C)C2)nc2nc(N3CC(C)OC(C)C3)c(-c3ccccc3)nc12 (centres unmarked) [B, 4-Ethyl-ethanolamino-2,7-bis(2,6-dimethyl-morpholino)-6-phenyl-pteridin]
IC50 (Tabelle 1, Adriamycin 0 ng/ml): > 31.6 µg/mL
IC50 (Tabelle 1, Adriamycin 25 ng/ml): 4.43 µg/mL
IC50 (Tabelle 2, Adriamycin 0 ng/ml): > 31.6 µg/mL
IC50 [1]: 0.77 µg/mL

CC1CN(c2nc(N(CCO)CC(C)(C)O)c3nc(-c4ccccc4)c(N4CC(C)OC(C)C4)nc3n2)CC(C)O1 (centres unmarked) [A, 4-[N-(2-Hydroxy-2-methyl-propyl)-ethanolamino]-2,7-bis-(2,6-dimethyl-morpholino)-6-phenyl-pteridin]
IC50 (Tabelle 1, Adriamycin 0 ng/ml): 20.7 µg/mL
IC50 (Tabelle 1, Adriamycin 25 ng/ml): 1.49 µg/mL
IC50 (Tabelle 2, Adriamycin 0 ng/ml): 20.7 µg/mL
IC50 [1]: < 0.5 µg/mL

CC(O)CN(CCO)c1nc(N2CC(C)OC(C)C2)nc2nc(N3CC(C)OC(C)C3)c(-c3ccccc3)nc12 (centres unmarked) [C, 4-Ethanol-isopropanolamino-2,7-bis(2,6-dimethyl-morpholino)-6-phenyl-pteridin]
IC50 (Tabelle 1, Adriamycin 0 ng/ml): 12.8 µg/mL
IC50 (Tabelle 1, Adriamycin 25 ng/ml): 3.77 µg/mL
IC50 (Tabelle 2, Adriamycin 0 ng/ml): 12.8 µg/mL
IC50 [1]: 0.82 µg/mL

CC1CN(c2nc(N(CCO)CCO)c3nc(-c4ccccc4)c(N4CC(C)OC(C)C4)nc3n2)CC(C)O1 (centres unmarked) [D, 4-Diethanolamino-2,7-bis(2,6-dimethyl-morpholino)-6-phenyl-pteridin]
IC50 (Tabelle 1, Adriamycin 0 ng/ml): 14.4 µg/mL
IC50 (Tabelle 1, Adriamycin 25 ng/ml): 5.78 µg/mL
IC50 (Tabelle 2, Adriamycin 0 ng/ml): 14.4 µg/mL
IC50 [1]: 1.57 µg/mL

C[C@@H]1CN(c2nc(N(CCO)CC(C)(C)O)c3nc(-c4ccccc4)c(N4C[C@@H](C)O[C@@H](C)C4)nc3n2)C[C@H](C)O1 [E, 4-[N-(2-Hydroxy-2-methyl-propyl)-ethanolamino]-2,7-bis(cis-2,6-dimethyl-morpholino)-6-phenyl-pteridin]
IC50 (Tabelle 1, Adriamycin 0 ng/ml): 7.5 µg/mL
IC50 (Tabelle 1, Adriamycin 25 ng/ml): 0.5 µg/mL
IC50 (Tabelle 2, Adriamycin 0 ng/ml): 7.5 µg/mL
IC50 [1]: 0.1 µg/mL
